{
  "source": "paper PMC9147192",
  "about": "“Small Molecule Arranged Thermal Proximity Coaggregation (smarTPCA)—A Novel Approach to Characterize Protein–Protein Interactions in Living Cells by Similar Isothermal Dose–Responses” (International Journal of Molecular Sciences, 2022)",
  "assay_in_all_cases": "TPP-CCR in living HL-60 cells",
  "assay_type_in_all_cases": "cell-based",
  "key": {"UGGT1": {"biological_target": "T1, UGGT1 (Homo sapiens, UniProt Q9NYU2)", "T1 construct": "endogenous in cells; host or cells: HL-60 (ATCC CCL-240)", "T1 sequence (Q9NYU2 43-1555)": "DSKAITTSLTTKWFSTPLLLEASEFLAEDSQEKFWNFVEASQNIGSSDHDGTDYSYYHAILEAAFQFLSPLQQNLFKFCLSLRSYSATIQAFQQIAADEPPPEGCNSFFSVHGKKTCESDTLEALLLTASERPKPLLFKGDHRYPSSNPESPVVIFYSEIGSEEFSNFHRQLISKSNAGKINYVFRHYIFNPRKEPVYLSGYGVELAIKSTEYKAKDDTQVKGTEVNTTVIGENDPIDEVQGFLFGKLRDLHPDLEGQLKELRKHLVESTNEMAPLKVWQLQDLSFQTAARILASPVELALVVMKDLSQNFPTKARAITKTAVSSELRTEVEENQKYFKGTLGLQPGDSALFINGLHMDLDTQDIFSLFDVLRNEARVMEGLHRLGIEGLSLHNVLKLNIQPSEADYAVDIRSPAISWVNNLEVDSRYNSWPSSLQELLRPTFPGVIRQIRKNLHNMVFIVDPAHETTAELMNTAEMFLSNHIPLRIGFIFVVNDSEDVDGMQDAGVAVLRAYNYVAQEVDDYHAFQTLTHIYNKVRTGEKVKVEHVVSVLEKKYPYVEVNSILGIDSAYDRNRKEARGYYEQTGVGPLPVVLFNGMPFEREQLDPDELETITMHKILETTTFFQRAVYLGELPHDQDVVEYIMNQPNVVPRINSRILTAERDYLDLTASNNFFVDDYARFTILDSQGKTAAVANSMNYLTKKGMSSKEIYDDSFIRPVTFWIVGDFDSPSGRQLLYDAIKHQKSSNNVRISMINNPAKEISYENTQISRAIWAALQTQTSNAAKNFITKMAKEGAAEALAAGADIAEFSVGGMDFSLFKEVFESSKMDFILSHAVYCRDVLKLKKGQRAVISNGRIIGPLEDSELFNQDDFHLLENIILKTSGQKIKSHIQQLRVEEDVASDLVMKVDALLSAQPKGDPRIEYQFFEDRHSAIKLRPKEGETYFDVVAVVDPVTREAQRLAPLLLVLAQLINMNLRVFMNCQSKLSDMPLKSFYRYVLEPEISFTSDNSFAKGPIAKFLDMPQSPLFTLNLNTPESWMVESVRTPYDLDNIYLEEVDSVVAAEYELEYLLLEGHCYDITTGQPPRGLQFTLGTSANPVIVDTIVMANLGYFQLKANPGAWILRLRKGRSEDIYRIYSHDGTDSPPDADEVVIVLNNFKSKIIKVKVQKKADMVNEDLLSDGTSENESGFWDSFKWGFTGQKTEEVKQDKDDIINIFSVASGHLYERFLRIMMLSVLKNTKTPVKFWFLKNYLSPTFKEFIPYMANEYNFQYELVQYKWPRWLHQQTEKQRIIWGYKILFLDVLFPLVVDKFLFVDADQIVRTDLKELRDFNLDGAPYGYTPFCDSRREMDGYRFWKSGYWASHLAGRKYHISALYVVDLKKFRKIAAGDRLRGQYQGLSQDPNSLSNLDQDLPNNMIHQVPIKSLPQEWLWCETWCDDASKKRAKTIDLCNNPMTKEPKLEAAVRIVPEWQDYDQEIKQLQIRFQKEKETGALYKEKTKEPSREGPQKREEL", "from_the_text": "(§1) Therefore, we performed TPP with compound concentration range (TPP-CCR) experiments according to published procedures. In brief, after preparing tryptic peptides from the non-denatured protein fractions (used for immunoblotting in the previous sections) applying the SP3 method, the peptides were labeled using TMT10plex, coding for inhibitor concentration, and the samples belonging to a TMT set were combined, offline high-pH fractionated, and analyzed by MS.\n(§2) HL-60 cells were expanded as described above for CETSA and TPP-TR to 1.25 million cells per milliliter. […] A number of 2.5 million cells in 2 mL of medium were added to each tube and incubated (1 h, 37 °C). After centrifugation (300 rcf, 3 min, r.t.) and removing all of the supernating culture medium, the cells were washed once with 2 mL and once with 0.5 mL PBS (r.t.) by gently resuspending the cells, followed by centrifugation (300 rcf, 3 min, r.t.) and the complete removal of the supernatants.\n(§3) After transferring the cells from the 2 mL Eppendorf tubes into correspondingly labeled PCR tubes (tube strips) using 100 µL of ice-cold PBS supplemented with protease inhibitors for resuspending the cells, the samples were further processed as described above for CETSA and TPP-TR, however, by applying a single treatment temperature of 51 °C.\n(§4) For each sample set comprising ten compound concentration range samples, a same volume of the cell extracts containing the fraction of soluble, non-denatured proteins, corresponding to an average of 5 µg total protein, was used for further analysis. The calculated volume was respectively transferred into PCR tubes of a tube strip and supplemented with SDS sample buffer without DTT and bromophenol blue (final concentrations: 7.5% glycerol, 3% SDS, 37.5 mM Tris/HCl pH 7.0) and ddH2O to a final volume of 10 µL, respectively. Reduction and alkylation were performed by addition of 2.5 µL 100 mM dithiothreitol (DTT; incubation: 20 min, 56 °C, 1000 rpm in an Eppendorf ThermoMixer C, covering the tubes with aluminum foil to minimize condensation in the lids) and 3.33 µL 300 mM iodoacetamide (IAA; incubation: 15 min, r.t., in the dark without shaking), as well as 2.5 µL 100 mM DTT (incubation: 15 min, r.t., without shaking; quenching of excess of IAA). […] The beads were collected and washed (3× 200 µL 80% ethanol p.a. in HPLC-MS grade water, 1 × 200 µL acetonitrile (ACN; HPLC gradient grade)) using a device for handling of magnetic particles [patent US20100200405A1]. The ACN of the last washing step was completely removed by aspiration without letting the beads dry out.\n(§5) Tryptic digest was performed on-bead by resuspending (use of an ultrasound bath may be required) the beads in 20 µL 50 mM TEAB in HPLC-MS grade water containing 0.1 µg Trypsin/Lys-C mix and 16.5 h incubation at 37 °C and 1000 rpm (Eppendorf ThermoMixer C, covering the tubes with aluminum foil to minimize condensation in the lids). Tryptic fragmentation of proteins was optimized by addition of another 0.1 µg of Trypsin/Lys-C mix in 2 µL 50 mM TEAB and 4 h incubation at 37 °C and 1000 rpm. After centrifugation for about 1 min in a table top centrifuge and magnetic concentration and retention of the beads at the inner tube wall, the supernatants containing the peptides were transferred into new PCR tubes (of tube strips) and were stored at −80 °C. The beads were discarded.\n(§6) Half of the peptide samples (11 µL containing about 2.5 µg peptides) were transferred into new PCR tubes (of tube strips) and allowed to equilibrate to r.t. TMT labeling reagents were reconstituted as described for the TPP-TR samples, and 1 µL each was added to the reconstituted peptides according to the following scheme and homogenized immediately by aspiration and dispensing:\n(§7) Peptide separation was performed as described above for the analysis of TPP-TR samples. […]"}, "GANAB": {"biological_target": "T2, GANAB (Homo sapiens, UniProt Q14697)", "T2 construct": "endogenous in cells; host or cells: HL-60 (ATCC CCL-240)", "T2 sequence (Q14697 29-944)": "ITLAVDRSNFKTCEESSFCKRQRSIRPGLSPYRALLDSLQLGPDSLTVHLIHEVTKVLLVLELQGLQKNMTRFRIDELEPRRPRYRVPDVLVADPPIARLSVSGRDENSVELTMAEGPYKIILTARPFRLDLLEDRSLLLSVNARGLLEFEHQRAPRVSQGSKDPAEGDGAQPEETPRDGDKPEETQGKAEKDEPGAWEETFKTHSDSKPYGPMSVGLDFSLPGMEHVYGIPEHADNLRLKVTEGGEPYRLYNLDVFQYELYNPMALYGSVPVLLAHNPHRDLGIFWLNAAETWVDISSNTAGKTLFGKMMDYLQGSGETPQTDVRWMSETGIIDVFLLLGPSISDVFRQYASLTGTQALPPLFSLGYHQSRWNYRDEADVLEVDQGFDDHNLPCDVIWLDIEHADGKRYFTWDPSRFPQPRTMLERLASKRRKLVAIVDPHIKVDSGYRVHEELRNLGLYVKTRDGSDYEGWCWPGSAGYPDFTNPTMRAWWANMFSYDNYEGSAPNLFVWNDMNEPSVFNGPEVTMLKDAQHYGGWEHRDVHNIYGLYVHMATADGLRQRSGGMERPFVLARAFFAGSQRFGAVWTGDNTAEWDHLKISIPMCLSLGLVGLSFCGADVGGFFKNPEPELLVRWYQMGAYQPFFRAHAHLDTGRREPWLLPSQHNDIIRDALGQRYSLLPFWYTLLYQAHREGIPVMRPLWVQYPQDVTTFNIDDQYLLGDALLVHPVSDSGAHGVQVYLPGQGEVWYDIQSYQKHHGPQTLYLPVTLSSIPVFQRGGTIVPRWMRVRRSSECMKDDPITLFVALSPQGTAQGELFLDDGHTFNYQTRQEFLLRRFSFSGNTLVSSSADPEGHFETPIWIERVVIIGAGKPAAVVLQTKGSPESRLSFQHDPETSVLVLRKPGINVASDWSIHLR", "from_the_text": "as §1, §2, §3, §4, §5, §6, §7"}, "FECH": {"biological_target": "T3, FECH (Homo sapiens, UniProt P22830)", "T3 construct": "endogenous in cells; host or cells: HL-60 (ATCC CCL-240)", "T3 sequence (P22830 55-423)": "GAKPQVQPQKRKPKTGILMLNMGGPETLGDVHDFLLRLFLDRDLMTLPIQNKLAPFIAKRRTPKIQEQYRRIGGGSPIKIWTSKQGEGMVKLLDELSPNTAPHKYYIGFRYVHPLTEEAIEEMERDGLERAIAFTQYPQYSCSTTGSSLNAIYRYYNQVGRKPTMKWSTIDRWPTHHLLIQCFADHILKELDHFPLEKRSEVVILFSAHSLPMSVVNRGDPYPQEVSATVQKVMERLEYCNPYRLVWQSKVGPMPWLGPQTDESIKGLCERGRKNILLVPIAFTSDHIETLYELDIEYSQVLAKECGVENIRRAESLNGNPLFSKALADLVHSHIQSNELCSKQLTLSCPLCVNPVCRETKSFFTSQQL", "from_the_text": "as §1, §2, §3, §4, §5, §6, §7"}, "[1]": {"details": "living HL-60 cells, […] °C, TMT-MS"}},
  "data": [
    {"compound": "Cc1cnc(Nc2ccc(F)cc2Cl)nc1-c1c[nH]c(C(=O)N[C@H](CO)c2cccc(Cl)c2)c1", "note": "[ERK 11e]", "values": [
      {"measurement": "Hill slope", "setting": "UGGT1; TPP-CCR, living cells, UGGT1", "result": 1.97},
      {"measurement": "Hill slope (UGGT1)", "setting": "UGGT1; [1]", "result": 1.97},
      {"measurement": "EC50", "setting": "UGGT1; living HL-60 cells, […] °C, TMT-MS, read-out: pEC50 (UGGT1) (converted)", "result": 5.37, "unit": "µM"},
      {"measurement": "Hill slope", "setting": "GANAB; TPP-CCR, living cells, GANAB", "result": 1.81},
      {"measurement": "Hill slope (GANAB)", "setting": "GANAB; [1]", "result": 1.81},
      {"measurement": "EC50", "setting": "GANAB; living HL-60 cells, […] °C, TMT-MS, read-out: pEC50 (GANAB) (converted)", "result": 5.25, "unit": "µM"},
      {"measurement": "Hill slope", "setting": "FECH; TPP-CCR, living cells, FECH", "result": 0.38},
      {"measurement": "EC50", "setting": "FECH; [1]", "result": 0.631, "unit": "µM"},
      {"measurement": "Hill slope (FECH)", "setting": "FECH; [1]", "result": 0.38}
    ]}
  ]
}
